# pKd: −log10 of the molar value. “And” between values parts separate entries of the source, which are not always exact repeats. Identical values can stand only once. “Also recorded” adds a separate entry of the source. Like-named read-outs stand apart in the source and are kept apart here. Non-standard residues stand in square brackets, D forms with d. Residues, ends and D or L forms follow the SMILES beside them. No end group written: not given here.
# Assays:
# [1] = 25% (v/v) human serum in 0.1 M TRIS buffer pH 7.4, peptide 200 μM, 37 °C, 0/24/48/72 h, LC-MS UV trace vs 4-hydroxybenzoic acid internal standard, n = 3
# Protocol: Human serum was diluted in 0.1 M filtered TRIS buffer pH 7.4 (50%, 1:1, v/v). Selected peptides were diluted in 0.1 M filtered TRIS buffer pH 7.4 to a concentration of 400 μM and 0.1 mg/mL 4- hydroxybenzoic acid was added as internal standard. Aliquots of peptide solution (300 μL) were added to aliquots of serum (300 μL) in sterile 1.5 mL Eppendorf tubes, to reach a peptide concentration of 200 μM and 25% (v/v) human serum during the assay. Samples, in triplicate, were incubated at 37 °C under gentle stirri ng (200 rpm). At different time points (0, 24, 48 and 72 hours), 100 μL of each sample was collected and quenched by precipitating serum proteins through the addition of (0.1 M) ZnSO4·7 H2O / ACN (1:1) (0.1 M, 100 μL) and cooling in ice bath for 10 minutes. Protein precipitates were pelleted under centrifugation (5 min at 14’000 rpm) and the supernatants were analysed by LC-MS. Peaks corresponding to the internal standard and the undegraded peptides were integrated from the area under the curves (AUC) of UV traces, with the ratio peptide/standard at t = 0 h as 100%.
# Figure S7. Serum stability assay of the respective compound (200 μM), incubated with human serum (25% in TRIS buffer, 0.1 M, pH 7.4) at 37 °C. Aliquots were taken at different time (0 / 24 / 48 and 72 h). Undegraded peptide values determined by RP -HPLC analysis usi ng hydroxybenzoic acid as internal standard. Measured in triplicates and the data represent mean ± SD, n […]
# (1 picture or pasted object on this page, not shown here)
# [2] = biological target: T1, DnaK (Escherichia coli, UniProt P0A6Y8); assay: Microscale thermophoresis with His-Tag-labeled DnaK; format: binding; details: MST buffer
# T1 construct: made in house; host or cells: E. coli BL21(DE3), pET28a T7 vector (synthetic gene, GenScript)
# T1 sequence (P0A6Y8 whole entry, species assumed): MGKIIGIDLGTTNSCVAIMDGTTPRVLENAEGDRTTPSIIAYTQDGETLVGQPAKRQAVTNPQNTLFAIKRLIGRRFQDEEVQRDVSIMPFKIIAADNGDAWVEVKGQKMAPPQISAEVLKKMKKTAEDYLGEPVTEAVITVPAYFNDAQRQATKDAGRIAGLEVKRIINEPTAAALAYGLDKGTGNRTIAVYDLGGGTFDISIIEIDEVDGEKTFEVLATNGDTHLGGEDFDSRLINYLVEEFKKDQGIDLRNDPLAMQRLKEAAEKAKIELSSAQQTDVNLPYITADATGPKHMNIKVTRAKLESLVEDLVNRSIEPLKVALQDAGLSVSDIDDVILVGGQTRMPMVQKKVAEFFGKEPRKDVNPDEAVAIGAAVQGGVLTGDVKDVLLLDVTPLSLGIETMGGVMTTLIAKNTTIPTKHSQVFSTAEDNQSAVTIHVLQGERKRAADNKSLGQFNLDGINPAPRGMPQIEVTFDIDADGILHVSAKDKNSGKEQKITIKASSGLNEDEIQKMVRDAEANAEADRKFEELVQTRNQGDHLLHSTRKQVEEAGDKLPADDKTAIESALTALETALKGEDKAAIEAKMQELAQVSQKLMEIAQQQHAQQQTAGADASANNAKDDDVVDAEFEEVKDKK
# Protocol: A plasmid containing the DnaK insert was designed in SnapGene and ordered commercially as a synthetic gene (Figure S11). Chemically competent BL21(DE3) cells were transformed with the plasmid vector (GenScript), and positive transformants were selected on LB + Kanamycin agar. For protein expression, 6 mL of overnight cultures inoculated with a single colony were used to initiate shake-flask expression at 300 mL scale in LB + kanamycin ([…]) + 1 mM IPTG. The flasks were cultured overnight at 220 rpm, 37 °C, and the bacteria were harvested by centrifugation the next day. Pelleted cells were stored at −20 °C. […] The collected fractions were analyzed by SDS-PAGE. […]
# DnaK labeling was performed using the Nanotemper Monolith His-Tag Labeling Kit RED-tris-NTA Second Generation. […] The fluorescence variation between the samples was measured in 4 replicates with the Monolith NT.115 device in Monolith NT.115 Premium Capillaries and analyzed with the MOcontrol software (Figures S13–S15).
# To each sample, 10 μL of 40 nM His-Tag-labeled DnaK was added, resulting in a final volume of 20 μL per sample. The fluorescence variations between the samples were measured by using the Monolith NT.115 device with Monolith NT.115 Premium Capillaries. The data were analyzed with MOcontrol software to determine the binding affinity between L-onc and His-Tag-labeled DnaK (Figure S16).
# [3] = system: P. aeruginosa PA14 4.13 (phoQ); assay: microbe, parasite or virus in culture; details: Pseudomonas aeruginosa
compound,measurement,setting,value
"VDKPPYLPRPRPPRRIYNR-NH2 [L-Onc, reference compound]",Serum stability (undegraded peptide),[1],rapidly degraded
same,pKd,"[2]; 2-fold serial dilution from 100 μM, His-Tag-labeled DnaK, read-out: KD, apparent binding to DnaK",4.53 and ~4.52
VDKPPYLPRPRPPRRIYNR [sr-Onc] (VDKPPYLPRPRPPRRIYNR-NH2; also: all 19 residues stereorandomized (1:1 L/D mixture)) [fully stereorandomized oncocin],DnaK binding check,"[2]; 20 nM His-Tag-labeled DnaK, 50 μM peptide, 4 replicates",negative for binding; also recorded: no detectable binding to DnaK
"CC[C@H]1OC(=O)[C@H](C)[C@@H](O[C@H]2C[C@@](C)(OC)[C@@H](O)[C@H](C)O2)[C@H](C)[C@@H](O[C@@H]2O[C@H](C)C[C@H](N(C)C)[C@H]2O)[C@](C)(O)C[C@@H](C)CN(C)[C@H](C)[C@@H](O)[C@]1(C)O [AZM, azithromycin, reference compound]",MIC,"[3]; PA14, pH 7.4, read-out: MIC P. aeruginosa PA14 4.13 (phoQ), 12.5% MHB, polymyxin B resistant strain, 12.5% MHB pH 7.4, 16–20 h at 37 °C",16 to 32 µg/mL
same,MIC,"[3]; PA14, pH 7.4, read-out: MIC P. aeruginosa PA14 4.13, supplement CSV, 12.5% MH pH 7.4",16 to 32 µg/mL
"CC[C@H](C)[C@H](NC(=O)[C@@H](CCCNC(=N)N)NC(=O)[C@H](CCCNC(=N)N)NC(=O)[C@@H]1CCCN1C(=O)[C@@H]1CCCN1C(=O)[C@H](CCCNC(=N)N)NC(=O)[C@@H]1CCCN1C(=O)[C@H](CCCNC(=N)N)NC(=O)[C@@H]1CCCN1C(=O)[C@H](CC(C)C)NC(=O)[C@H](Cc1ccc(O)cc1)NC(=O)[C@@H]1CCCN1C(=O)[C@@H]1CCCN1C(=O)[C@H](CCCCN)NC(=O)[C@H](CC(=O)O)NC(=O)[C@@H](N)C(C)C)C(=O)N[C@@H](Cc1ccc(O)cc1)C(=O)N[C@@H](CC(N)=O)C(=O)N[C@H](CCCNC(=N)N)C(N)=O [Onc112, reference compound] (H-VDKPPYLPRPRPPR[dR]IYN[dR]-NH2)",Serum stability (undegraded peptide),[1],essentially stable to degradation over 24 h
